Measurements from article PMC6272711, “5-Methoxyquinoline Derivatives as a New Class of EZH2 Inhibitors” (Molecules, 2015).

Columns and labels:
HCT15 = experiment: MTT cell growth inhibition, HCT15; assay type: cell-based, human; conditions: Homo sapiens, HCT-15, 96 h, read-out: IC50 HCT15, MTT, treatment 96 h; means of at least three measurements
EZH2 = EZH2 (Homo sapiens, UniProt Q15910); experiment: AlphaLISA assay for EZH2; assay type: biochemical; conditions: enzymatic assay; means of at least three measurements
Chain of EZH2 (Q15910 whole entry): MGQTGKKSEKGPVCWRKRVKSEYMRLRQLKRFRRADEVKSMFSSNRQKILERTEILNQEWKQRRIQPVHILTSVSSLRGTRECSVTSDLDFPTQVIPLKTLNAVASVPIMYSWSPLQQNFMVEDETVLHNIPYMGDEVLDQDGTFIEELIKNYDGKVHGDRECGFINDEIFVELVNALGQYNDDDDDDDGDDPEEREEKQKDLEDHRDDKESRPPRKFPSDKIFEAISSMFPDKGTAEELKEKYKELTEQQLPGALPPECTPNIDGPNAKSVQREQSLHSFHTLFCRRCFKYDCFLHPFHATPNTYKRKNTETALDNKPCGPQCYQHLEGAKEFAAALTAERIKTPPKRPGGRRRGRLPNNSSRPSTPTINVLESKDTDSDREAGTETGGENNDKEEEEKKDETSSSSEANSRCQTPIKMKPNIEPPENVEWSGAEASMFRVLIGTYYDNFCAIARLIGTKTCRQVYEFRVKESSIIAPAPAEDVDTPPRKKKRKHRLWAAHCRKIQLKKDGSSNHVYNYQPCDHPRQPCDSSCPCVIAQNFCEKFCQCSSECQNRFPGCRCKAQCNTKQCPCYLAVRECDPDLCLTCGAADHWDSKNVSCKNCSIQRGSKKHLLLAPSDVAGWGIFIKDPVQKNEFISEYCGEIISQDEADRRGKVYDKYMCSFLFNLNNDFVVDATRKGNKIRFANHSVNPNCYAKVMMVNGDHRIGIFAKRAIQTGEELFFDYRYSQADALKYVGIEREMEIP
Chain of EZH2 (O75530 whole entry partner): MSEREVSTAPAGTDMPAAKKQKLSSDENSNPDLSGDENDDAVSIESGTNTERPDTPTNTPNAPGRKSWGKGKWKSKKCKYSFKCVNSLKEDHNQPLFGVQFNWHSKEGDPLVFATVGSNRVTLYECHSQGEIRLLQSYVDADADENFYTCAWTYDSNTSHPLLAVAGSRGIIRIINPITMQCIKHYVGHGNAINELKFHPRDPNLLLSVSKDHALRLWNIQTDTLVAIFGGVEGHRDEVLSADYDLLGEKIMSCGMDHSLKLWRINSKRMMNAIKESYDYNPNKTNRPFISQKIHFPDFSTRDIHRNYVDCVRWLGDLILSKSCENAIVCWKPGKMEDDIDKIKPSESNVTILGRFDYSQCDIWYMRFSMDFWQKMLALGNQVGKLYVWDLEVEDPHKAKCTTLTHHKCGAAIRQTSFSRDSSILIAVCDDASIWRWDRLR
Chain of EZH2 (Q15022 whole entry partner): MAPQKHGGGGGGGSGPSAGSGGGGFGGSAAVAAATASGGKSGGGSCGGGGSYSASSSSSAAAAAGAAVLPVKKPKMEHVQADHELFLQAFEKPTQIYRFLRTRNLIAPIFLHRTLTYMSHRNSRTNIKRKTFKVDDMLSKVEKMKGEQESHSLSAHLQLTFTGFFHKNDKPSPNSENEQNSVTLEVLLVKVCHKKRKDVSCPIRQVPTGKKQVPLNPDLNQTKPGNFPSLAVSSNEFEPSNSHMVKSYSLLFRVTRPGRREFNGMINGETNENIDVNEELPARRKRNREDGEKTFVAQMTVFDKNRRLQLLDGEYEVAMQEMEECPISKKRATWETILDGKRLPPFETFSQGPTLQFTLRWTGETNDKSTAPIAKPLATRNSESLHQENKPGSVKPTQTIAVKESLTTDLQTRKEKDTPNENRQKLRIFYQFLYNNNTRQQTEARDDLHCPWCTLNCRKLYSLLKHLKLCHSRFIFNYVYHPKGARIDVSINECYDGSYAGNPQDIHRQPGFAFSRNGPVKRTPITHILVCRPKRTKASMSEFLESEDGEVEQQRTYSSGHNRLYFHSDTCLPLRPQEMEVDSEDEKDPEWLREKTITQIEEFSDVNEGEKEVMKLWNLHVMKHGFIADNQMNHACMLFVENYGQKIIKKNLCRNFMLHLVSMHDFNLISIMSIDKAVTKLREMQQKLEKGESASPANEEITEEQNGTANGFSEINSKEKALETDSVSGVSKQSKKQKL

MDA-MB-231 = experiment: MTT cell growth inhibition, MDA-MB-231; assay type: cell-based; conditions: Homo sapiens, MDA-MB-231, 96 h, read-out: IC50 MDA-MB-231

COc1cccc2nc(N3CCCN(C)CC3)cc(Nc3ccc(C)cc3)c12 [Compound 5r, 5-Methoxy-2-(4-methyl-1,4-diazepan-1-yl)-N-(p-tolyl)quinolin-4-amine]
IC50 (HCT15): 12.9 ± 0.89 µM | IC50 (EZH2): 39.7 ± 1.26 µM | IC50 (MDA-MB-231): > 20 µM

COc1cccc2nc(N3CCCN(C)CC3)cc(NCCC(C)C)c12 [Compound 5h, N-Isopentyl-5-methoxy-2-(4-methyl-1,4-diazepan-1-yl)quinolin-4-amine]
IC50 (HCT15): 5.46 ± 0.85 µM | IC50 (EZH2): 11.5 ± 1.21 µM | IC50 (MDA-MB-231): 4.31 ± 0.57 µM

COc1cccc2nc(N3CCCN(C)CC3)cc(Nc3cc(C(F)(F)F)cc(C(F)(F)F)c3)c12 [Compound 5v, N-(3,5-Bis(trifluoromethyl)phenyl)-5-methoxy-2-(4-methyl-1,4-diazepan-1-yl)quinolin-4-amine]
IC50 (HCT15): 10.2 ± 1.24 µM | IC50 (EZH2): 34.1 ± 2.22 µM | IC50 (MDA-MB-231): > 20 µM

COc1cccc2nc(N3CCN(C)CC3)cc(NC3CCN(Cc4ccccc4)CC3)c12 [Compound 5a, N-(1-Benzylpiperidin-4-yl)-5-methoxy-2-(4-methylpiperazin-1-yl)quinolin-4-amine]
IC50 (HCT15): 12.3 ± 0.95 µM | IC50 (EZH2): 16.4 ± 1.24 µM | IC50 (MDA-MB-231): 11.9 ± 1.83 µM

COc1cccc2nc(Nc3ncccn3)cc(NC3CCN(Cc4ccccc4)CC3)c12 [Compound 5d, N4-(1-Benzylpiperidin-4-yl)-5-methoxy-N2-(pyrimidin-2-yl)quinoline-2,4-diamine]
IC50 (HCT15): > 20 µM | IC50 (EZH2): 17.5 ± 0.96 µM | IC50 (MDA-MB-231): > 20 µM

COc1ccccc1Nc1cc(N2CCCN(C)CC2)nc2cccc(OC)c12 [Compound 5o, 5-Methoxy-N-(2-methoxyphenyl)-2-(4-methyl-1,4-diazepan-1-yl)quinolin-4-amine]
IC50 (HCT15): > 20 µM | IC50 (EZH2): 17.5 ± 1.13 µM | IC50 (MDA-MB-231): > 20 µM

COc1cccc(Nc2cc(N3CCCN(C)CC3)nc3cccc(OC)c23)c1 [Compound 5s, 5-Methoxy-N-(3-methoxyphenyl)-2-(4-methyl-1,4-diazepan-1-yl)quinolin-4-amine]
IC50 (HCT15): 19.6 ± 0.56 µM | IC50 (EZH2): 16.8 ± 0.94 µM | IC50 (MDA-MB-231): 16.9 ± 1.06 µM

COc1ccc(Nc2cc(N3CCCN(C)CC3)nc3cccc(OC)c23)c(C)c1 [Compound 5q, 5-Methoxy-N-(4-methoxy-2-methylphenyl)-2-(4-methyl-1,4-diazepan-1-yl)quinolin-4-amine]
IC50 (HCT15): 16.9 ± 0.36 µM | IC50 (EZH2): 34.8 ± 1.54 µM | IC50 (MDA-MB-231): 14.5 ± 1.23 µM

COc1ccc2nc(N3CCCN(C)CC3)cc(NC3CCN(C)CC3)c2c1OC [Compound 9d, 5,6-Dimethoxy-2-(4-methyl-1,4-diazepan-1-yl)-N-(1-methylpiperidin-4-yl)quinolin-4-amine]
IC50 (HCT15): 8.6 ± 2.2 µM | IC50 (EZH2): 5.6 ± 0.45 µM | IC50 (MDA-MB-231): 12.4 ± 0.95 µM

COc1ccc(Nc2cc(N3CCCN(C)CC3)nc3cccc(OC)c23)cc1 [Compound 5m, 5-Methoxy-N-(4-methoxyphenyl)-2-(4-methyl-1,4-diazepan-1-yl)quinolin-4-amine]
IC50 (HCT15): 18.9 ± 1.97 µM | IC50 (EZH2): 19.7 ± 2.56 µM | IC50 (MDA-MB-231): > 20 µM

COc1cccc2nc(N3CCCN(C)CC3)cc(Nc3ccc([N+](=O)[O-])cc3)c12 [Compound 5u, 5-Methoxy-2-(4-methyl-1,4-diazepan-1-yl)-N-(4-nitrophenyl)quinolin-4-amine]
IC50 (HCT15): 17.8 ± 1.27 µM | IC50 (EZH2): 26.2 ± 2.54 µM | IC50 (MDA-MB-231): 14.9 ± 2.2 µM

COc1cc(OC)c2c(NC3CCN(C)CC3)cc(N3CCCN(C)CC3)nc2c1 [Compound 9e, 5,7-Dimethoxy-2-(4-methyl-1,4-diazepan-1-yl)-N-(1-methylpiperidin-4-yl)quinolin-4-amine]
IC50 (HCT15): 10.6 ± 0.83 µM | IC50 (EZH2): 6.7 ± 0.36 µM | IC50 (MDA-MB-231): 12.5 ± 0.62 µM

COc1cccc2nc(Cl)cc(NC3CCN(Cc4ccccc4)CC3)c12 [Compound 1, N-(1-benzylpiperidin-4-yl)-2-chloro-5-methoxyquinolin-4-amine]
IC50 (MDA-MB-231): > 20 µM

COc1cccc2nc(Nc3ccc([N+](=O)[O-])cc3)cc(NC3CCN(Cc4ccccc4)CC3)c12 [Compound 5e, N4-(1-Benzylpiperidin-4-yl)-5-methoxy-N2-(4-nitrophenyl)quinoline-2,4-diamine]
IC50 (HCT15): 17.8 ± 1.27 µM | IC50 (EZH2): 29.4 ± 1.01 µM | IC50 (MDA-MB-231): 14.9 ± 2.2 µM

COc1cccc2nc(N3CCCN(C)CC3)cc(Nc3cncnc3)c12 [Compound 5t, 5-Methoxy-2-(4-methyl-1,4-diazepan-1-yl)-N-(pyrimidin-5-yl)quinolin-4-amine]
IC50 (HCT15): > 20 µM | IC50 (EZH2): 35.3 ± 1.61 µM | IC50 (MDA-MB-231): > 20 µM

COc1cc(OC)c2nc(N3CCCN(C)CC3)cc(NC3CCN(C)CC3)c2c1 [Compound 9h, 6,8-Dimethoxy-2-(4-methyl-1,4-diazepan-1-yl)-N-(1-methylpiperidin-4-yl)quinolin-4-amine]
IC50 (HCT15): 19.8 ± 1.27 µM | IC50 (EZH2): 14.9 ± 1.71 µM | IC50 (MDA-MB-231): 13.2 ± 1.64 µM

COc1cccc2nc(N3CCCN(C)CC3)cc(NCCN3CCN(C)CC3)c12 [Compound 5j, 5-Methoxy-2-(4-methyl-1,4-diazepan-1-yl)-N-(2-(4-methylpiperazin-1-yl)ethyl)quinolin-4-amine]
IC50 (HCT15): 18.6 ± 2.2 µM | IC50 (EZH2): 4.2 ± 0.2 µM | IC50 (MDA-MB-231): 12.4 ± 0.95 µM

COc1cccc2nc(N3CCOCC3)cc(NC3CCN(Cc4ccccc4)CC3)c12 [Compound 5b, N-(1-Benzylpiperidin-4-yl)-5-methoxy-2-morpholinoquinolin-4-amine]
IC50 (HCT15): 15.6 ± 1.27 µM | IC50 (EZH2): 23 ± 2.06 µM | IC50 (MDA-MB-231): 14.2 ± 1.97 µM

COc1cccc2nc(N3CCCN(C)CC3)cc(Nc3ccc(C(C)C)cc3)c12 [Compound 5n, N-(4-Isopropylphenyl)-5-methoxy-2-(4-methyl-1,4-diazepan-1-yl)quinolin-4-amine]
IC50 (HCT15): 14.6 ± 1.27 µM | IC50 (EZH2): 26.4 ± 2.04 µM | IC50 (MDA-MB-231): 13.2 ± 2.53 µM

COc1ccc(OC)c2c(NC3CCN(C)CC3)cc(N3CCCN(C)CC3)nc12 [Compound 9f, 5,8-Dimethoxy-2-(4-methyl-1,4-diazepan-1-yl)-N-(1-methylpiperidin-4-yl)quinolin-4-amine]
IC50 (HCT15): 15.5 ± 0.53 µM | IC50 (EZH2): 9.2 ± 0.51 µM | IC50 (MDA-MB-231): 12.4 ± 0.49 µM

COc1ccc2c(NC3CCN(C)CC3)cc(N3CCCN(C)CC3)nc2c1OC [Compound 9i, 7,8-Dimethoxy-2-(4-methyl-1,4-diazepan-1-yl)-N-(1-methylpiperidin-4-yl)quinolin-4-amine]
IC50 (HCT15): > 20 µM | IC50 (EZH2): 13.7 ± 1.32 µM | IC50 (MDA-MB-231): > 20 µM

COc1cccc2nc(N3CCCN(C)CC3)cc(NC3CCOCC3)c12 [Compound 5l, 5-Methoxy-2-(4-methyl-1,4-diazepan-1-yl)-N-(tetrahydro-2H-pyran-4-yl)quinolin-4-amine]
IC50 (HCT15): 15.5 ± 0.2 µM | IC50 (EZH2): 2.8 ± 0.21 µM | IC50 (MDA-MB-231): 2.4 ± 0.49 µM

COc1cccc2nc(N3CCCN(C)CC3)cc(NC3CCN(C(C)C)CC3)c12 [Compound 5i, N-(1-Isopropylpiperidin-4-yl)-5-methoxy-2-(4-methyl-1,4-diazepan-1-yl)quinolin-4-amine]
IC50 (HCT15): > 20 µM | IC50 (EZH2): 17.4 ± 1.07 µM | IC50 (MDA-MB-231): 15.7 ± 1.27 µM

COc1cccc2nc(N3CCCN(C)CC3)cc(Nc3ccc(N(C)C)cc3)c12 [Compound 5p, N1-(5-Methoxy-2-(4-methyl-1,4-diazepan-1-yl)quinolin-4-yl)-N4,N4-dimethylbenzene-1,4-diamine]
IC50 (HCT15): 17.4 ± 1.54 µM | IC50 (EZH2): 27.6 ± 0.97 µM | IC50 (MDA-MB-231): 16.2 ± 1.67 µM

COc1cccc2nc(N3CCCCC3)cc(NC3CCN(Cc4ccccc4)CC3)c12 [Compound 5c, N-(1-Benzylpiperidin-4-yl)-5-methoxy-2-(piperidin-1-yl)quinolin-4-amine]
IC50 (HCT15): 7.8 ± 0.46 µM | IC50 (EZH2): 32 ± 2.78 µM | IC50 (MDA-MB-231): 5.6 ± 0.14 µM

COc1cccc2nc(Nc3cc(C(F)(F)F)cc(C(F)(F)F)c3)cc(NC3CCN(Cc4ccccc4)CC3)c12 [Compound 5f, N4-(1-Benzylpiperidin-4-yl)-N2-(3,5-bis(trifluoromethyl)phenyl)-5-methoxyquinoline-2,4-diamine]
IC50 (HCT15): 10.2 ± 1.24 µM | IC50 (EZH2): 21.6 ± 2.35 µM | IC50 (MDA-MB-231): > 20 µM

COc1cccc2nc(N3CCCN(C)CC3)cc(NC3CCN(Cc4ccccc4)CC3)c12 [Compound 5g, N-(1-Benzylpiperidin-4-yl)-5-methoxy-2-(4-methyl-1,4-diazepan-1-yl)quinolin-4-amine]
IC50 (HCT15): 3.78 ± 0.07 µM | IC50 (EZH2): 6.6 ± 0.49 µM | IC50 (MDA-MB-231): 4.56 ± 0.24 µM

COc1cc2nc(N3CCCN(C)CC3)cc(NC3CCN(C)CC3)c2cc1OC [Compound 9g, 6,7-Dimethoxy-2-(4-methyl-1,4-diazepan-1-yl)-N-(1-methylpiperidin-4-yl)quinolin-4-amine]
IC50 (HCT15): 15.9 ± 1.85 µM | IC50 (EZH2): 17.8 ± 2.07 µM | IC50 (MDA-MB-231): > 20 µM
